From US6635634B2, “Propanolamine derivatives” (Fujisawa Pharmaceutical Co., Ltd., priority 1998, dated 2003)
Each block holds one compound with its values, some of them ahead of it.

Experiments:
anesthetized dog = experiment: Effect on the increase in intravesical pressure induced by carbachol in anesthetized dog (Test 1); assay type: in vivo; conditions: for Increase in intravesical pressure (mmHg): 0.01 mg/kg intravenously 5 minutes before carbachol (1.8 μg/kg); for effect on the increase in intravesical pressure induced by carbachol (in words): anesthetized dog, 0.01 mg/kg intravenously
Procedure: Effect on the increase in intravesical pressure induced by carbachol in anesthetized dog
Female Beagle dogs weighing 8.0-15.0 kg were fasted for 24 hours and maintained under halothane anesthesia. A 12F Foley catheter was lubricated with water soluble jelly, inserted into the urethral orifice and advanced approximately 10 cm until the balloon tip was placed well inside the bladder. The balloon was then inflated with 5 ml of room air and catheter slowly withdrawn just part the first resistance that is felt at the bladder neck. Urine was completely drained out throught the catheter, and 30 ml of biological saline was infused. The catheter was connected to pressure transducer, and intravesical pressure was continuously recorded. The test compound was injected intravenously at 5 minutes before the administration of carbachol (1.8 μg/kg).
According to a similar manner to that of Test 1 described before, the effects of the present compounds on the intravesical pressure were evaluated.

anesthetized rat [1] = experiment: Effect on cystometrogram in anesthetized rat (Test 2); assay type: in vivo; conditions: for bladder capacity (relative % of before value): 0.01 mg/kg intravenously, N = 5
Description: Effect on Cystometrogram in Anesthetized Rat Male S.D. rats, aged 7-9 weeks, were anesthetized with urethane (1.2 g/kg, sc) and supine on a board. After a midline incision in the abdomen, the bladder was exposed. Polyethylene catheters, which were used to measure the intravesical pressure and to infuse saline, were inserted into the bladder through a small incision at the apex of the bladder dome. The bladder catheters were connected to an infusion pump and pressure transducer respectively. Saline was infused a rate of 5.0 ml/hr for 1 hour. Cystometrography was performed at 15 minutes intervals for 1 hour. The bladder capacity (volume) was calculated from the time required to fill the bladder. The test compound was administered intravenously via femoral vein.

anesthetized rat [2] = experiment: Effect on rhythmic contraction of bladder in anesthetized rat (Test 3); assay type: in vivo; conditions: dose of 0.1 mg/kg intravenously
Description: Effect on Rhythmic Contraction of Bladder in Anesthetized Rat
Male S.D. rats, aged 7-8 weeks, were anesthetized with urethane (1.2 g/kg, ip) and supine on a board. After a midline incision in the abdomen, the bladder was exposed. Balloon catheter, which was used to measure the intravesical pressure, was inserted into the bladder through a small incision at the apex of the bladder dome. The balloon was then inflated with distilled water and the balloon port of the catheter was connected to pressure transducer. Rhythmic contraction of bladder induced by increase intravesical pressure to 10 mmHg. The test compound was administered intravenously via femoral vein.

melting point: 94 to 99 °C (dec.)
Compound: Cl.Oc1cc2c(cc1Cl)CC(N(Cc1ccccc1)C[C@H](O)COc1ccccc1)CCC2 (stereo partly drawn)

melting point: 53.5 °C (dec.)
Compound: Cl.Oc1ccc2c(c1)CCCC(NC[C@H](O)COc1ccccc1)C2 (stereo partly drawn)

melting point: 73 to 84 °C (dec.)
Compound: Cl.Oc1cccc2c1CCCC(NC[C@H](O)COc1ccccc1)C2 (stereo partly drawn)

melting point: 100.5 °C (dec.)
Compound: Cl.O=c1[nH]c2cccc(OCC(O)CNC3CCCc4cc(O)ccc4C3)c2[nH]1 (stereo not drawn)

melting point: 111 to 133 °C (dec.)
Compound: O=c1[nH]c2cccc(OCC(O)CN(Cc3ccccc3)C3CCCc4cc(O)ccc4C3)c2[nH]1 (stereo not drawn) [Example 11, 1-[N-benzyl-N-(6,7,8,9-tetrahydro-2-hydroxy-5H-benzocyclohepten-6-yl)amino]-3-(1,3-dihydro-2-benzoimidazolon-4-yloxy)-2-propanol]

Compound: COc1ccc(C(Cc2ccccc2)NC[C@H](O)c2ccc(O)c(NS(C)(=O)=O)c2)cc1OC (stereo partly drawn) [Test Compound (1), N-[5-[2-[l-(3,4-Dimethoxyphenyl)-2-phenylethylamino]-1(R)-hydroxyethyl]-2-hydroxyphenyl]methanesulfonamide]
Increase in intravesical pressure (mmHg) (anesthetized dog; Control 5.0 ± 0.9, N = 3, P<0.01 vs Control): 1.8 ± 0.3 mmHg
effect on the increase in intravesical pressure induced by carbachol (in words) (anesthetized dog): inhibited the increase in intravesical pressure induced by carbachol

Compound: O=c1n(CCCC2CCCC2)nnn1-c1ccc(S(=O)(=O)Nc2ccc(CCNC[C@H](O)c3cccnc3)cc2)cc1 [Test Compound (2), N-[4-[2-[2(R)-Hydroxy-2-(pyridin-3-yl)ethylamino]ethyl]-phenyl]-4-[4-(3-cyclopentylpropyl)-5-tetrazolon-1-yl]-benzenesulfonamide]
Increase in intravesical pressure (mmHg) (anesthetized dog; Control 5.0 ± 1.2, N = 4, P<0.05 vs Control): 2.3 ± 1.5 mmHg
effect on the increase in intravesical pressure induced by carbachol (in words) (anesthetized dog): inhibited the increase in intravesical pressure induced by carbachol

Compound: CS(=O)(=O)Nc1cc(C(O)CNCCOc2ccc3c(c2)[nH]c2ccccc23)ccc1O.Cl (stereo not drawn) [Test Compound (3), N-[5-[2-[2-(9H-Carbazol-2-yloxy)ethylamino]-1-hydroxyethyl]-2-hydroxyphenyl]methanesulfonamide hydrochloride]
Increase in intravesical pressure (mmHg) (anesthetized dog; Control 5.0 ± 0.5, N = 3, P<0.01 vs Control): 1.7 ± 0.6 mmHg
effect on the increase in intravesical pressure induced by carbachol (in words) (anesthetized dog): inhibited the increase in intravesical pressure induced by carbachol

Compound: CCOC(=O)COc1ccc2c(c1)C[C@@H](NC[C@H](O)c1cccc(Cl)c1)CC2.Cl [compound (4), 2(S)-[ (7-Ethoxycarbonylmethoxy-1,2,3,4-tetrahydro-naphthalen-2-yl)amino]-1(R)-(3-chlorophenyl)ethanol hydrochloride]
bladder capacity (relative % of before value) (anesthetized rat [1]; time 0-15 minutes, vehicle 128): 152%
bladder capacity (relative % of before value) (anesthetized rat [1]; time 15-30 minutes, vehicle 111): 146%
bladder capacity (relative % of before value) (anesthetized rat [1]; time 30-45 minutes, vehicle 114): 143%
bladder capacity (relative % of before value) (anesthetized rat [1]; time 45-60 minutes, vehicle 104): 151%
effect on bladder capacity (in words) (anesthetized rat [1]; dose of 0.01 mg/kg intravenously): increased in bladder capacity

Compound: COC(=O)COc1ccc(C[C@@H](C)NC[C@H](O)c2cccc(Cl)c2)cc1 [compound (5), Methyl 4-[2(R)-[2-(3-chlorophenyl)-2(R)-hydroxyethyl-amino]propyl]phenoxyacetate]
effect on contractile force of bladder (in words) (anesthetized rat [2]): decreased in contractile force of bladder

Compound: N-butyl-2-[8-[[(2S)-2-hydroxy-3-[4-hydroxy-3-methanesulfonylamino]phenoxypropyl]amino]-6,7,8,9-tetrahydro-5H-benzocyclohepten-2-yloxy]acetamide hydrochloride [Example 155]
ED50 (effect on the intravesical pressure) (anesthetized dog; similar manner to Test 1, anesthetized dog): 0.0108 mg/kg
